“And” between values parts separate entries of the source, which are not always exact repeats. Identical values can stand only once. Counter-ions that a name gives are not always drawn.
Experiments:
[1] = test system: Amaranthus palmeri S. Wats. (Palmer amaranth, AMAPA); assay: Field trial, post-emergence weed control (% visual control), AMAPA; type: in vivo
Description: (§1) These trials were conducted under field conditions in multiple states in the United States, including but not limited to Arkansas, Illinois, Indiana, Minnesota, Mississippi,
(§2) Nebraska, Ohio, Oklahoma, Texas, South Carolina and South Dakota. […] Treatments were applied with small plot backpack sprayers, using pressurized air or carbon dioxide (CO2) as propellant. Pressure varied from 22-50 pounds per square inch (psi), with spray tips typically of a Flat Fan type applying water diluent at 15 gallons per acre (GPA). Boom sizes varied from 6.3-10 ft in width. Treatments were applied to soybean, cotton, corn or fallow crop land. Weed sizes varied, but all treatments were applied as post-emergence treatments to weeds from 2 leaf to 2 tiller growth stages varying from 2 to 15 inches in height. The weed spectrum included, but was not limited to, Amaranthus palmeri S. Wats. (Palmer amaranth, AMAPA), Conyza canadensis (L.) Cronq. (horseweed, ERICA), Salsola tragus L. (Russian thistle, SASKR) and Sesbania exaltata (hemp sesbania, SEBEX).
(§3) The 2,4-D-choline salt formulation was a 456 g ae/L SL. […] All treatments were mixed in water at appropriate formulated product rates to achieve the desired rates as shown based on a unit area of application (hectare). Treatments were rated at 2 to 28 days after application (DAA) as compared to the untreated control plants. The trial sites had naturally occurring populations of weeds. The treated plots and control plots were rated blind at various intervals after application.
(§4) Colby's equation was used to determine the herbicidal effects expected from the mixtures (Colby, S. R. Calculation of the synergistic and antagonistic response of herbicide combinations. Weeds 1967, 15, 20-22). A t-test (alpha=0.05) between Colby predictions and observed combinations was used to test for significant differences indicating synergy or antagonism using replicate data.
(§5) The following equation was used to calculate the expected activity of mixtures containing two active ingredients, A and B:
(§6) Expected=A+B−(A×B/100) • A=observed efficacy of active ingredient A at the same concentration as used in the mixture; • B=observed efficacy of active ingredient B at the same concentration as used in the mixture.

[2] = test system: Sesbania exaltata (hemp sesbania, SEBEX); assay: Field trial, post-emergence weed control (% visual control), SEBEX; type: in vivo
Description: as §1, §2, §3, §4, §5, §6

[3] = test system: Conyza canadensis (L.) Cronq. (horseweed, ERICA); assay: Field trial, post-emergence weed control (% visual control), ERICA; type: in vivo
Description: as §1, §2, §3, §4, §5, §6

[4] = test system: Salsola tragus L. (Russian thistle, SASKR); assay: Field trial, post-emergence weed control (% visual control), SASKR; type: in vivo
Description: as §1, §2, §3, §4, §5, §6

[5] = test system: AAD12 Soybean (GLXMA); assay: Field crop tolerance trial in 2,4-D- and glufosinate-tolerant soybean (% visual injury, chlorosis, growth inhibition)
Description: as §1, §2
2,4-D- and glufosinate-tolerant soybeans, corn and cotton and optionally a glyphosate trait in a breeding (CP4 EPSPS) or a molecular stack (2mEPSPS) were used in all tolerance trials.
as §3, with “application. […]” for “application.”

In the case of `CP(=O)(O)CCC(N)C(=O)O` (stereo not shown) [Glufosinate-ammonium, ammonium (3-amino-3-carboxypropyl)(methyl)phosphinate], the “Mean % weed control” value ([1]; 7 DAA, 542 g ae/ha) is reported as 80.0%, the “Mean % weed control” value ([1]; 10 DAA, 542 g ae/ha) is reported as 54.3% and the “Mean % weed control” value ([1]; 13 DAA, 542 g ae/ha) is reported as 75.0%. For the same compound, the “Mean % weed control” value ([1]; 16 DAA, 542 g ae/ha) was 65.0%, the “Mean % weed control” value ([1]; 21 DAA, 542 g ae/ha) was 51.3% and the “Mean % weed control” value ([1]; 22 DAA, 542 g ae/ha) was 56.3%. The “Mean % weed control” value ([2]; 8 DAA, 542 g ae/ha) was 73.8%, the “Mean % weed control” value ([2]; 16 DAA, 542 g ae/ha) was 78.8% and the “Mean % weed control” value ([2]; 23 DAA, 542 g ae/ha) was 65.0%. The “Mean % weed control” value ([3]; 7 DAA, 542 g ae/ha) was 75.0%, the “Mean % weed control” value ([3]; 13 DAA, 542 g ae/ha) was 85.0% and the “Mean % weed control” value ([3]; 22 DAA, 542 g ae/ha) was 80.0%. For the same compound, the “Mean % weed control” value ([3]; 28 DAA, 542 g ae/ha) was 98.0%, the “Mean % weed control” value ([4]; 14 DAA, 542 g ae/ha) was 12.5% and the “Mean % weed control” value ([4]; 21 DAA, 542 g ae/ha) was 6.3%.
In the case of `O=C(O)COc1ccc(Cl)cc1Cl` [2,4-D-Choline salt, 2-hydroxy-N,N,N-trimethylethanaminium 2-(2,4-dichlorophenoxy)acetate], the “Mean % crop chlorosis” value ([5]; 2 DAA, 2130 g ae/ha) is reported as 0.0% and 2.3%, the “Mean % crop injury” value ([5]; 2 DAA, 2130 g ae/ha) is reported as 3.5% and 5.0% and the “Mean % crop chlorosis” value ([5]; 3 DAA, 1065 g ae/ha) is reported as 0.0%. The “Mean % crop injury” value ([5]; 3 DAA, 1065 g ae/ha) was 0.3%, the “Mean % crop chlorosis” value ([5]; 3 DAA, 2130 g ae/ha) was 0.0% and 1.3% and 0.8% and 0.5% and the “Mean % crop injury” value ([5]; 3 DAA, 2130 g ae/ha) was 0.3%. The “Mean % crop chlorosis” value ([5]; 4 DAA, 1065 g ae/ha) was 0.0%, the “Mean % crop injury” value ([5]; 4 DAA, 1065 g ae/ha) was 0.0% and the “Mean % crop chlorosis” value ([5]; 4 DAA, 2130 g ae/ha) was 0.0% and 0.7%. For the same compound, the “Mean % crop injury” value ([5]; 4 DAA, 2130 g ae/ha) was 1.0%, the “Mean % crop injury” value ([5]; 6 DAA, 1065 g ae/ha) was 4.0% and the “Mean % crop injury” value ([5]; 6 DAA, 2130 g ae/ha) was 4.0%. For the same compound, the “Mean % crop chlorosis” value ([5]; 7 DAA, 1065 g ae/ha) was 0.0%, the “Mean % crop chlorosis” value ([5]; 7 DAA, 2130 g ae/ha) was 0.0% and 1.7% and 1.3% and 3.0% and the “Mean % crop growth inhibition” value ([5]; 7 DAA, 2130 g ae/ha) was 1%. For the same compound, the “Mean % crop injury” value ([5]; 7 DAA, 2130 g ae/ha) was 4.0% and 13.3%, the “Mean % crop chlorosis” value ([5]; 8 DAA, 1065 g ae/ha) was 0.0% and the “Mean % crop chlorosis” value ([5]; 8 DAA, 2130 g ae/ha) was 0.0%. The “Mean % crop chlorosis” value ([5]; 9 DAA, 1065 g ae/ha) was 0.0%, the “Mean % crop injury” value ([5]; 9 DAA, 1065 g ae/ha) was 0.0% and the “Mean % crop chlorosis” value ([5]; 9 DAA, 2130 g ae/ha) was 0.0%. The “Mean % crop injury” value ([5]; 9 DAA, 2130 g ae/ha) was 0.0%, the “Mean % crop chlorosis” value ([5]; 13 DAA, 1065 g ae/ha) was 0.0% and the “Mean % crop injury” value ([5]; 13 DAA, 1065 g ae/ha) was 2.0%. The “Mean % crop chlorosis” value ([5]; 13 DAA, 2130 g ae/ha) was 0.0%, the “Mean % crop injury” value ([5]; 13 DAA, 2130 g ae/ha) was 3.3% and the “Mean % crop chlorosis” value ([5]; 14 DAA, 1065 g ae/ha) was 0.0%. For the same compound, the “Mean % crop injury” value ([5]; 14 DAA, 1065 g ae/ha) was 3.0% and 0.0%, the “Mean % crop chlorosis” value ([5]; 14 DAA, 2130 g ae/ha) was 0.0% and 0.8% and 1.3% and the “Mean % crop growth inhibition” value ([5]; 14 DAA, 2130 g ae/ha) was 0%. For the same compound, the “Mean % crop injury” value ([5]; 14 DAA, 2130 g ae/ha) was 2.3%, the “Mean % crop chlorosis” value ([5]; 15 DAA, 2130 g ae/ha) was 0.0% and the “Mean % crop growth inhibition” value ([5]; 15 DAA, 2130 g ae/ha) was 0%. For the same compound, the “Mean % crop injury” value ([5]; 15 DAA, 2130 g ae/ha) was 0.0%, the “Mean % weed control” value ([1]; 7 DAA, 800 g ae/ha) was 47.5% and the “Mean % weed control” value ([1]; 10 DAA, 1065 g ae/ha) was 55.0%. For the same compound, the “Mean % weed control” value ([1]; 13 DAA, 1065 g ae/ha) was 45.0%, the “Mean % weed control” value ([1]; 16 DAA, 800 g ae/ha) was 62.5% and the “Mean % weed control” value ([1]; 21 DAA, 1065 g ae/ha) was 38.8%. For the same compound, the “Mean % weed control” value ([1]; 22 DAA, 800 g ae/ha) was 48.8%, the “Mean % weed control” value ([2]; 8 DAA, 800 g ae/ha) was 32.5% and the “Mean % weed control” value ([2]; 16 DAA, 800 g ae/ha) was 42.5%. The “Mean % weed control” value ([2]; 23 DAA, 800 g ae/ha) was 38.8%, the “Mean % weed control” value ([3]; 7 DAA, 1065 g ae/ha) was 40.0% and the “Mean % weed control” value ([3]; 13 DAA, 1065 g ae/ha) was 40.0%. For the same compound, the “Mean % weed control” value ([3]; 22 DAA, 1065 g ae/ha) was 40.0%, the “Mean % weed control” value ([3]; 28 DAA, 1065 g ae/ha) was 30.0% and the “Mean % weed control” value ([4]; 14 DAA, 1065 g ae/ha) was 67.5%. The “Mean % weed control” value ([4]; 21 DAA, 1065 g ae/ha) was 65.0%.
